Experimental data from PMC6015718, “Effect of Polyvalence on the Antibacterial Activity of a Synthetic Peptide Derived from Bovine Lactoferricin against Healthcare-Associated Infectious Pathogens” (BioMed Research International, 2018).
Read-outs that look alike come from different tables or passages of the source. One block for each compound: values may come before it. Positions of bridges follow the written chain, without caps; N, C: chain ends. Non-standard residues stand in square brackets, D forms with d. Residues, ends and D or L forms follow the SMILES beside them. Chains are numbered I, II in the order given. No end group written: not given here. Ahx = NCCCCCC(=O)O

Experiments:
Assay type in all cases: cell-based
[1] = system: Klebsiella pneumoniae ATCC 700603 (resistant)
Excerpt: (§1) All microorganisms were purchased from the American Type Culture Collection (ATCC). To determine the antibacterial activity of synthetic peptides against HCAI bacteria, the Staphylococcus aureus strains ATCC 25923 and ATCC 33591 were employed as sensitive and resistant strains, respectively, of a Gram-positive microorganisms species, and Klebsiella pneumoniae ATCC 13883 and ATCC 700603 as sensitive and resistant strains of a Gram-negative species.
(§2) To determine the MBC, an aliquot from each well of the MIC assay was spread onto MHA. After 18 h at 37°C, the concentration that inhibited bacterial growth was determined. Each of these tests was performed four times. MBC was defined as the lowest concentration of peptide that reduced the number of bacteria by 99.9% in vitro [12].

[2] = system: Staphylococcus aureus ATCC 25923 (sensitive)
Excerpt: as §1, §2

[3] = system: Klebsiella pneumoniae ATCC 13883 (sensitive)
Excerpt: as §1, §2

human erythrocytes = assay: Haemolytic activity; settings: 6.25-100 μM peptide; human erythrocytes 2% haematocrit in PBS, 2 h 37°C, OD492; n = 2
Procedure: Human erythrocytes collected from the blood samples of healthy humans were harvested by centrifugation for 7 min at 162 ×g and washed three times in phosphate-buffered saline (PBS). The erythrocytes (2% haematocrit in PBS) were incubated with peptide molecules at several concentrations (6.25, 12.5, 25, 50, and 100 μM), for 2 h at 37°C. PBS was used as a negative control, and sterile distilled water was used as a positive control for haemolysis (100% of haemolysis). The plate was subsequently centrifuged at 1459 ×g for 10 min at 4°C. Aliquots of the supernatants of each well (75 μL) were carefully transferred to a new sterile 96-well plate, and haemolytic activity was evaluated by measuring the OD492 using an Asys Expert Plus Microplate reader. The experiments were performed in duplicate, and peptide haemolysis activity was calculated.
Lastly, to evaluate the effects of the peptides on normal human erythrocytes, their haemolysis activity was investigated (Figure 6). The percentage of haemolytic activity on human red blood cells after 2 hours was determined via the standard microtitre dilution method. The peptide concentration is reported as μM.

[4] = system: Staphylococcus aureus ATCC 33591 (resistant)
Excerpt: as §1, §2

[5] = system: Staphylococcus aureus ATCC 33591 (resistant); remark: listed apart in the source
Excerpt: as §1
(§3) The antibacterial activity assay for peptides and controls was performed according to the National Committee for Clinical Laboratory Standards method M7-A7 [11]. MIC and MBC values were determined using a broth microdilution and growth inhibition method with some modification. Briefly, MIC assays were performed by liquid inhibition growth assay in an untreated sterile 96-well flat-bottom tissue culture plate. Bacteria were cultured overnight on Mueller-Hinton agar (MHA). Three colonies were transferred to 8 mL of Mueller-Hinton broth (MHB) and incubated at 37°C until the mid-exponential phase of growth. The turbidity of the cultures was measured and adjusted spectrophotometrically to McFarland standard 0.5, then diluted to a final concentration of […]. Synthetic antibacterial peptide candidate stock solutions were diluted to final concentrations per well of 200, 100, 50, 25, 12.5, and 6.25 μM. […]
(§4) Wells containing MHB with bacterial inoculum only served as bacterial growth controls. Additional controls included MHB alone and MHB with ciprofloxacin (CIP) (2 μg/mL) and bacteria as a positive control. The microplate was incubated for 24 h at 37°C, and growth inhibition was examined by monitoring the optical density at 620 nm (OD620). MIC was defined as the lowest peptide concentration that inhibited bacteria growth >90%.

[6] = system: Klebsiella pneumoniae ATCC 700603 (resistant); remark: listed apart in the source
Excerpt: as §1, §3, §4

[7] = system: Staphylococcus aureus ATCC 25923 (sensitive); remark: listed apart in the source
Excerpt: as §1, §3, §4

[8] = system: Klebsiella pneumoniae ATCC 13883 (sensitive); remark: listed apart in the source
Excerpt: as §1, §3, §4

Compound: RRWQWR-NH2 [Motif]
MBC ([1]; ATCC 700603, 18 h): > 200 µM | MBC ([2]; ATCC 25923, 18 h): > 200 µM | MBC ([3]; ATCC 13883, 18 h): > 200 µM | haemolysis activity over the concentrations tested (human erythrocytes): no haemolysis activity

MIC ([5]; ATCC 33591, 24 h): 12.5 µM | MIC ([5]; S. aureus ATCC 33591 resistant, MHB, 24 h 37°C, OD620, >90% inhibition, average of four independent experiments in duplicate): 57 µg/mL | MIC ([5]; S. aureus ATCC 33591 resistant, MHB, 24 h 37°C, OD620, >90% inhibition, average of four independent experiments in duplicate, listed as tetrameric): ≥ 57 µg/mL | MIC ([5]; S. aureus ATCC 33591 resistant, value in parentheses, MHB, 24 h 37°C, OD620, >90% inhibition): ≥ 12.5 µM | MIC ([6]; ATCC 700603, 24 h): 12.5 µM | MIC ([6]; K. pneumoniae ATCC 700603 resistant, MHB, 24 h 37°C, OD620, >90% inhibition, average of four independent experiments in duplicate): 57 µg/mL | MIC ([6]; K. pneumoniae ATCC 700603 resistant, MHB, 24 h 37°C, OD620, >90% inhibition, average of four independent experiments in duplicate, listed as tetrameric): ≥ 57 µg/mL | MIC ([6]; K. pneumoniae ATCC 700603 resistant, value in parentheses, MHB, 24 h 37°C, OD620, >90% inhibition): ≥ 12,5 µM | MIC ([7]; ATCC 25923, 24 h): 6.25 µM | MIC ([7]; S. aureus ATCC 25923 sensitive, MHB, 24 h 37°C, OD620, lowest concentration inhibiting growth >90%, average of four independent experiments in duplicate): 29 µg/mL | MIC ([7]; S. aureus ATCC 25923 sensitive, MHB, 24 h 37°C, OD620, lowest concentration inhibiting growth >90%, average of four independent experiments in duplicate, listed as tetrameric): ≥ 29 µg/mL | MIC ([7]; S. aureus ATCC 25923 sensitive, value in parentheses, MHB, 24 h 37°C, OD620, >90% inhibition, average of four independent experiments in duplicate): ≥ 6.25 µM | MIC ([8]; ATCC 13883, 24 h): 6.25 µM | MIC ([8]; K. pneumoniae ATCC 13883 sensitive, MHB, 24 h 37°C, OD620, >90% inhibition, average of four independent experiments in duplicate): 29 µg/mL | MIC ([8]; K. pneumoniae ATCC 13883 sensitive, MHB, 24 h 37°C, OD620, >90% inhibition, average of four independent experiments in duplicate, listed as tetrameric): ≥ 29 µg/mL | MIC ([8]; K. pneumoniae ATCC 13883 sensitive, value in parentheses, MHB, 24 h 37°C, OD620, >90% inhibition): ≥ 6,25 µM
Compound: N=C(N)NCCC[C@H](NC(=O)[C@H](Cc1c[nH]c2ccccc12)NC(=O)[C@H](CCC(N)=O)NC(=O)[C@H](Cc1c[nH]c2ccccc12)NC(=O)[C@H](CCCNC(=N)N)NC(=O)[C@@H](N)CCCNC(=N)N)C(=O)NCCCC[C@H](NC(=O)[C@H](CCCNC(=N)N)NC(=O)[C@H](Cc1c[nH]c2ccccc12)NC(=O)[C@H](CCC(N)=O)NC(=O)[C@H](Cc1c[nH]c2ccccc12)NC(=O)[C@H](CCCNC(=N)N)NC(=O)[C@@H](N)CCCNC(=N)N)C(=O)NCCCCCC(=O)N[C@@H](CSSC[C@H](NC(=O)CCCCCNC(=O)[C@H](CCCCNC(=O)[C@H](CCCNC(=N)N)NC(=O)[C@H](Cc1c[nH]c2ccccc12)NC(=O)[C@H](CCC(N)=O)NC(=O)[C@H](Cc1c[nH]c2ccccc12)NC(=O)[C@H](CCCNC(=N)N)NC(=O)[C@@H](N)CCCNC(=N)N)NC(=O)[C@H](CCCNC(=N)N)NC(=O)[C@H](Cc1c[nH]c2ccccc12)NC(=O)[C@H](CCC(N)=O)NC(=O)[C@H](Cc1c[nH]c2ccccc12)NC(=O)[C@H](CCCNC(=N)N)NC(=O)[C@@H](N)CCCNC(=N)N)C(N)=O)C(N)=O [Tetrameric] (I: H-RRWQWRK[Ahx]C-NH2 / II: H-RRWQWRK[Ahx]C-NH2 / III: H-RRWQWR / IV: H-RRWQWR; amide I:7-III:C, II:7-IV:C; disulfide I:9-II:9)
MBC ([4]; ATCC 33591, 18 h): 12.5 µM | MBC ([4]; S. aureus ATCC 33591 resistant, MHA, 18 h 37°C, 99.9% reduction): 57 µg/mL | MBC ([4]; S. aureus ATCC 33591 resistant, MHA, 18 h 37°C, 99.9% reduction, listed as tetrameric): ≥ 57 µg/mL | MBC ([4]; S. aureus ATCC 33591 resistant, value in parentheses, MHA, 18 h 37°C, 99.9% reduction): ≥ 12.5 µM | MBC as a function of the MBC of the tetrameric peptide ([4]; S. aureus resistant strain, from concentrations in μg/mL): 1 x MBC | MBC ([1]; ATCC 700603, 18 h): 25 µM | MBC ([1]; K. pneumoniae ATCC 700603 resistant, MHA, 18 h 37°C, 99.9% reduction): 115 µg/mL | MBC ([1]; K. pneumoniae ATCC 700603 resistant, MHA, 18 h 37°C, 99.9% reduction, listed as tetrameric): ≥ 115 µg/mL | MBC ([1]; K. pneumoniae ATCC 700603 resistant, value in parentheses, MHA, 18 h 37°C, 99.9% reduction): ≥ 25 µM | MBC as a function of the MBC of the tetrameric peptide ([1]; K. pneumoniae resistant strain, from concentrations in μg/mL): 1 x MBC | MBC ([2]; ATCC 25923, 18 h): 12.5 µM | MBC ([2]; S. aureus ATCC 25923 sensitive, MHA, 18 h 37°C, 99.9% reduction, average of four independent experiments): 57 µg/mL | MBC ([2]; S. aureus ATCC 25923 sensitive, MHA, 18 h 37°C, 99.9% reduction, average of four independent experiments, listed as tetrameric): ≥ 57 µg/mL | MBC ([2]; S. aureus ATCC 25923 sensitive, value in parentheses, MHA, 18 h 37°C, 99.9% reduction): ≥ 12.5 µM | MBC as a function of the MBC of the tetrameric peptide ([2]; S. aureus sensitive strain, from concentrations in μg/mL): 1 x MBC | MBC ([3]; ATCC 13883, 18 h): 25 µM | MBC ([3]; K. pneumoniae ATCC 13883 sensitive, MHA, 18 h 37°C, 99.9% reduction): 115 µg/mL | MBC ([3]; K. pneumoniae ATCC 13883 sensitive, MHA, 18 h 37°C, 99.9% reduction, listed as tetrameric): ≥ 115 µg/mL | MBC ([3]; K. pneumoniae ATCC 13883 sensitive, value in parentheses, MHA, 18 h 37°C, 99.9% reduction): ≥ 25 µM | MBC as a function of the MBC of the tetrameric peptide ([3]; K. pneumoniae sensitive strain, from concentrations in μg/mL): 1 x MBC | concentration at which antibacterial activity was displayed (dose-response profile) ([7]; S. aureus sensitive strain, Figure 2): ≥ 29 µg/mL

MIC ([5]; ATCC 33591, 24 h): 6.25 µM | MIC ([6]; ATCC 700603, 24 h): 50 µM | MIC ([7]; ATCC 25923, 24 h): 50 µM | MIC ([8]; ATCC 13883, 24 h): 50 µM
Compound: RWQWRWQWR [Palindromic]
MBC ([4]; ATCC 33591, 18 h): 50 µM | MBC ([1]; ATCC 700603, 18 h): 100 µM | MBC ([2]; ATCC 25923, 18 h): 100 µM | MBC ([3]; ATCC 13883, 18 h): 100 µM
